Measured values as given in article PMC7691360, “Synthesis of novel cytotoxic tetracyclic acridone derivatives and study of their molecular docking, ADMET, QSAR, bioactivity and protein binding properties” (Scientific Reports, 2020).

Experiments:
HT29 cells = assay: MTT cytotoxicity assay against HT29; assay type: cell-based; details: Homo sapiens, 48 h, read-out: Percentage of inhibition against treated concentrations; for activity at 1 µM: HT-29, HT29, 1 µM; for activity at 5 µM: HT-29, HT29, 5 µM; for activity at 10 µM: HT-29, HT29, 10 µM; for activity at 25 µM: HT-29, HT29, 25 µM; for activity at 50 µM: HT-29, HT29, 50 µM
Method: (§1) Anticancer activity of 7a–s has been evaluated by MTT [3-(4,5-dimethylthiazol-2-yl)-2,5-diphenyl-tetrazolium bromide] assay and the cell lines HT29 (ATCC: HTB-38), MDA-MB-231 (ATCC: HTB-26), HEK293T (ATCC: CRL-3216) were procured from American type cell culture collection (ATCC), Manassas, USA and other chemicals were procured from Sigma-Aldrich. Then absorbance (used as a measure of cell proliferation) was measured at 570 nm with a kinetic micro-plate reader (BioTek, Winooski, Vermont).
(§2) Having synthesized a series of the title compounds, all of them were screened for their in vitro anticancer profiles against a panel of human colorectal adenocarcinoma (HT29), human breast adenocarcinoma (MDA-MB-231) and mutated Human embryonic kidney 293 (HEK293T) cancer cell lines by using MTT colourmetric assay as per Johan van Meerloo protocol. The three cell lines were cultured in […] medium and supplemented with 10% FBS followed by 100 units/mL penicillin/ streptomycin and were cultured at 37 °C in 5% CO2. Cell proliferation of the growing cells was measured in terms of logarithmic standards. Analytically, all the cultured cells were plated onto 96 well plates at a starting density of 10^5 cells. Then all the cells were treated with title compounds 7a–s for a period of 48 h with different concentrations. After this incubation cell proliferation inhibition was determined by MTT assay and all the experiments were conducted in triplicates and readings were presented as mean ± SD and provided in Tables 1, 2 and 3.

MDA-MB-231 cells = assay: MTT cytotoxicity assay against MDA-MB-231; assay type: cell-based; details: Homo sapiens, 48 h, read-out: Percentage of inhibition against treated concentrations; for activity at 1 µM: MDAMB231, 1 µM; for activity at 5 µM: MDAMB231, 5 µM; for activity at 10 µM: MDAMB231, 10 µM; for activity at 25 µM: MDAMB231, 25 µM; for activity at 50 µM: MDAMB231, 50 µM
Method: as §1, §2

HEK293T cells = assay: MTT cytotoxicity assay against HEK293T; assay type: cell-based; details: Homo sapiens, HEK-293T, 48 h, read-out: Percentage of inhibition against treated concentrations
Method: as §1, §2

Row | melting point | SMILES | activity at 1 µM (HT29 cells) | activity at 5 µM (HT29 cells) | activity at 10 µM (HT29 cells) | activity at 25 µM (HT29 cells) | activity at 50 µM (HT29 cells) | activity at 1 µM (MDA-MB-231 cells) | activity at 5 µM (MDA-MB-231 cells) | activity at 10 µM (MDA-MB-231 cells) | activity at 25 µM (MDA-MB-231 cells) | activity at 50 µM (MDA-MB-231 cells) | activity at 1 µM (HEK293T cells) | activity at 5 µM (HEK293T cells) | activity at 10 µM (HEK293T cells) | activity at 25 µM (HEK293T cells) | activity at 50 µM (HEK293T cells)
1 | 232 to 234 °C | O=C(c1ccccn1)N1CCn2c3ccccc3c(=O)c3cccc1c32 [Compound 7a, 3-Picolinoyl-2,3-dihydropyrazino[3,2,1-de]acridin-7(1H)-one] | 78.91 ± 0.42% | 57.61 ± 0.39% | 44.1 ± 0.86% | 14.9 ± 0.36% | 8.77 ± 0.72% | 84.42 ± 0.35% | 55.22 ± 0.46% | 44.52 ± 0.29% | 25 ± 0.27% | 14.7 ± 0.42% | 99.93 ± 0.11% | 98.52 ± 0.96% | 97.63 ± 0.45% | 96.81 ± 0.2% | 57 ± 0.81%
2 | 221 to 223 °C | Cc1cccnc1C(=O)N1CCn2c3ccccc3c(=O)c3cccc1c32 [Compound 7g, 3-(3-Methylpicolinoyl)-2,3-dihydropyrazino[3,2,1-de]acridin-7(1H)-one] | 79.09 ± 0.34% | 58.9 ± 0.93% | 45.1 ± 0.54% | 25.5 ± 0.44% | 10 ± 0.91% | 81.56 ± 0.48% | 52.3 ± 0.86% | 41.7 ± 0.74% | 14.6 ± 0.34% | 10.6 ± 0.28% | 95.9 ± 0.54% | 92.62 ± 0.31% | 88.84 ± 0.07% | 81.24 ± 0.32% | 48.2 ± 0.86%
3 | – | O=C(c1ccccc1C(F)(F)F)N1CCn2c3ccccc3c(=O)c3cccc1c32 [Compound 7m, 3-(2-(Trifluoromethyl)benzoyl)-2,3-dihydro-1H,7H-pyrazino[3,2,1-de]acridin-7-one] | 92.71 ± 0.01% | 76.71 ± 0.17% | 68.5 ± 0.72% | 57.33 ± 0.32% | 23.8 ± 0.33% | 92.11 ± 0.88% | 71.15 ± 0.19% | 65 ± 0.46% | 56.9 ± 0.59% | 33.5 ± 0.57% | 97.18 ± 0.28% | 94.73 ± 0.82% | 92.36 ± 0.46% | 86.88 ± 0.3% | 51.2 ± 0.07%
4 | 225 to 227 °C | O=C(c1ccccc1F)N1CCn2c3ccccc3c(=O)c3cccc1c32 [Compound 7p, 3-(2-Fluorobenzoyl)-2,3-dihydro-1H,7H-pyrazino[3,2,1-de]acridin-7-one] | 90.43 ± 0.77% | 74.71 ± 0.22% | 65.8 ± 0.76% | 54.13 ± 0.37% | 21 ± 0.22% | 89.82 ± 0.36% | 68.3 ± 0.79% | 61.77 ± 0.42% | 51.43 ± 0.36% | 30.3 ± 0.84% | 96.23 ± 0.74% | 93.99 ± 0.91% | 89.17 ± 0.81% | 82.34 ± 0.34% | 48.53 ± 0.12%
5 | – | O=C(CC1CC1)N1CCn2c3ccccc3c(=O)c3cccc1c32 [Compound 7d, 3-(2-Cyclopropylacetyl)-2,3-dihydropyrazino[3,2,1-de]acridin-7(1H)-one] | 88.71 ± 0.78% | 63.1 ± 0.71% | 50.91 ± 0.38% | 29.68 ± 0.23% | 18 ± 0.39% | 85.23 ± 0.73% | 55.73 ± 0.21% | 45.6 ± 0.98% | 28.6 ± 0.43% | 16.83 ± 0.16% | 99.76 ± 0.56% | 98.09 ± 0.42% | 97.1 ± 0.88% | 96.35 ± 0.19% | 56.8 ± 0.69%
6 | 252 to 254 °C | Cc1ccc(C(=O)N2CCn3c4ccccc4c(=O)c4cccc2c43)nc1 [Compound 7f, 3-(5-Methylpicolinoyl)-2,3-dihydropyrazino[3,2,1-de]acridin-7(1H)-one] | 86.92 ± 0.24% | 61.4 ± 0.68% | 49.24 ± 0.05% | 29.09 ± 0.18% | 17.1 ± 0.65% | 83.22 ± 0.21% | 54.18 ± 0.35% | 43.7 ± 0.54% | 23.3 ± 0.26% | 13.8 ± 0.73% | 92.96 ± 0.52% | 90.92 ± 0.52% | 88.07 ± 0.68% | 80.53 ± 0.41% | 47.46 ± 0.38%
7 | – | O=C(c1ccsc1)N1CCn2c3ccccc3c(=O)c3cccc1c32 [Compound 7h, 3-(Thiophene-3-carbonyl)-2,3-dihydropyrazino[3,2,1-de]acridin-7(1H)-one] | 87.92 ± 0.24% | 62.4 ± 0.68% | 50.2 ± 0.65% | 29.5 ± 0.51% | 17.8 ± 0.65% | 82.62 ± 0.41% | 53.8 ± 0.75% | 42.4 ± 0.49% | 21.4 ± 0.29% | 12.6 ± 0.72% | 92.81 ± 0.18% | 89.61 ± 0.31% | 86.2 ± 0.66% | 78.45 ± 0.18% | 46.23 ± 0.43%
8 | – | COc1cccc2c1C(=O)c1c(O)c3c(c(O)c1C2=O)C[C@@](O)(C(=O)CO)C[C@@H]3O[C@H]1C[C@H](N)[C@H](O)[C@H](C)O1 [Doxorubicin, reference compound] | 97.09 ± 0.79% | 90.76 ± 0.83% | 82.92 ± 0.54% | 72.6 ± 0.83% | 42.8 ± 0.86% | 93.65 ± 0.42% | 87.54 ± 0.67% | 79.98 ± 0.67% | 69.98 ± 0.47% | 41.2 ± 0.79% | 96.1 ± 0.83% | 95.66 ± 0.42% | 92.44 ± 0.56% | 85.27 ± 0.78% | 50.25 ± 0.14%
9 | – | O=c1c2ccccc2n2c3c(cccc13)N(c1cccnc1)CC2 [Compound 7s, 3-(Pyridin-3-yl)-2,3-dihydropyrazino[3,2,1-de]acridin-7(1H)-one] | 84.78 ± 0.12% | 60.38 ± 0.24% | 48.4 ± 0.57% | 27.5 ± 0.35% | 15.2 ± 0.61% | 88.63 ± 0.67% | 59.87 ± 0.26% | 49.22 ± 0.24% | 43.07 ± 0.28% | 25.4 ± 0.46% | 93.26 ± 0.88% | 91.78 ± 0.53% | 88.09 ± 0.54% | 80.57 ± 0.26% | 47.8 ± 0.79%
10 | – | O=C(c1cccc(C(F)(F)F)c1)N1CCn2c3ccccc3c(=O)c3cccc1c32 [Compound 7n, 3-(3-(Trifluoromethyl)benzoyl)-2,3-dihydro-1H,7H-pyrazino[3,2,1-de]acridin-7-one] | 95.32 ± 0.73% | 79.12 ± 0.33% | 72.72 ± 0.33% | 59.26 ± 0.11% | 26.9 ± 0.84% | 90.57 ± 0.59% | 69.83 ± 0.31% | 61.97 ± 0.44% | 54.23 ± 0.32% | 31.96 ± 0.16% | 96.84 ± 0.75% | 94.67 ± 0.59% | 92.02 ± 0.39% | 84.32 ± 0.28% | 49.69 ± 0.21%
11 | – | O=C(c1cccc(C(F)(F)F)n1)N1CCn2c3ccccc3c(=O)c3cccc1c32 [Compound 7i, 3-(6-(Trifluoromethyl)picolinoyl)-2,3-dihydropyrazino[3,2,1-de]acridin-7(1H)-one] | 83.56 ± 0.57% | 59.1 ± 0.75% | 46.5 ± 0.52% | 25.8 ± 0.28% | 12.2 ± 0.27% | 84.78 ± 0.64% | 55.71 ± 0.32% | 45.6 ± 0.94% | 28.6 ± 0.3% | 16.8 ± 0.37% | 98.39 ± 0.19% | 95.7 ± 0.97% | 93.38 ± 0.64% | 88.56 ± 0.24% | 52.19 ± 0.26%
12 | – | O=C(c1cccc(F)c1)N1CCn2c3ccccc3c(=O)c3cccc1c32 [Compound 7q, 3-(3-Fluorobenzoyl)-2,3-dihydro-1H,7H-pyrazino[3,2,1-de]acridin-7-one] | 94.96 ± 0.53% | 78.87 ± 0.43% | 70.57 ± 0.53% | 58.23 ± 0.29% | 25.3 ± 0.44% | 93.46 ± 0.54% | 72.41 ± 0.45% | 66.2 ± 0.69% | 57.89 ± 0.12% | 34.1 ± 0.37% | 98.51 ± 0.12% | 96.21 ± 0.72% | 94.69 ± 0.34% | 91.34 ± 0.41% | 53.8 ± 0.58%
